# Results from publication PMC8148468, “Shikimic acid protects skin cells from UV-induced senescence through activation of the NAD+-dependent deacetylase SIRT1” (Aging (Albany NY), 2021).
# Key:
# Format in all cases: cell-based, human
# [1] = tested on: H4K16ac (the target of SIRT1 and SIRT2); experiment: Sirtuin activity assay in HDF: H4K16ac levels (Western blot); details: HDF treated 24h
# Description: Figure 1 (A) Schematic representation of the compound testing for sirtuin activity evaluation in HDF. Cells were treated with or without the compounds for 24h and harvested for analysis. […] (C) Western Blot analysis and (D) quantification of H4K16ac and H3K9ac levels in cells treated with Resveratrol or Shikimic acid at the indicated concentrations. H4K16 and H3K9 levels were normalized to H4 and H3 levels respectively. Student T-test, *p<0.05, **p<0.01, ***p<0.001.
# HDFs were plated in 100x20 mm2 cell culture plates and after 24h, fresh cell culture medium containing the compounds was added. After 24h, cells were detached with cell scrapers, harvested, and processed for qPCR or western blot.
# (§1) Protein levels were analyzed as previously described. Cells were directly lysed in 1x Laemmli Buffer (Bio-Rad, USA), incubated at 95° C and centrifuged. Supernatant was subjected to SDS-polyacrylamide gel electrophoresis, and successive steps were performed as described. The list of antibodies used is included in Supplementary Table 2.
# [2] = tested on: γH2AX; experiment: γH2AX immunofluorescence assay; details: UVB irradiation, SA 10, 25, 50 mM
# Description: (§2) Figure 4 (A) SRB and Trypan blue cell viability assays performed in cells treated with or without Shikimic acid (5, 10, 25 and 50 mM) for 24h. (B) Apoptosis detection using the Annexin V-FITC/PI double staining followed by flow cytometry in non-irradiated and non-treated cells, irradiated and non-treated cells and irradiated cells treated with Shikimic acid (10, 25 and 50 mM). (C) Representation and statistical analysis of the percentage of apoptotic cells in each of the conditions analyzed. (D) Cell cycle analysis using PI staining followed by flow cytometry. (E) Relative p16^INK4a mRNA levels monitored by qPCR in the indicated conditions. Student T-test, *p<0.05. (F) Immunofluorescence of γH2AX in non-irradiated and non-treated cells, irradiated and non-treated cells and irradiated cells treated with Shikimic acid (10, 25 and 50 mM). […]
# The staining and detection of γH2AX foci by immunofluorescence was performed as previously described. Slides were analyzed by confocal microscopy using a Confocal Leica SP5 microscope (Leica Microsystems) with a 63x objective.
# [3] = tested on: chaperone BiP; experiment: BiP protein levels (Western blot); details: UVB-irradiated cells, SA -/+ EX-527 1 μM
# Description: (§3) Figure 5 (A) Western-blot of BiP proteins levels in UVB or non UVB irradiated cells treated with SA at the indicated concentrations in presence or absence of EX-527 1 μM. (B) Quantification of n=3 experiments as (A). The levels of BiP are normalized by the loading control (histone H3) and represented related to the conditions in UVB irradiated cells in absence of SA and EX-527. Student T-test, *p<0.05. (C) Percentage of SA-β-Gal in assays performed as in Figure 3C. (D) Levels of spliced and unspliced XBP1 mRNA monitored by qPCR analysis in cells treated in the indicated conditions in presence or absence of SA and/or EX-527. The levels were normalized by internal controls and represented in each case related to the conditions in UVB irradiated cells in absence of SA and EX-527. Student T-test, *p<0.05, **p<0.01, ***p<0.001. (E) LC3-II protein levels in experiments like in (A). The levels of LC3-II are normalized by the loading control (tubulin) and represented related to the conditions in UVB irradiated cells in absence of SA and EX-527. Student T-test, *p<0.05. (F) Proposed Model for the effect of SA on senescence through SIRT1. Other possible unexplored connections between SA and senescence are indicated by blue broken lines.
# (§4) Protein levels were analyzed as previously described. Cells were directly lysed in 1x Laemmli Buffer (Bio-Rad, USA), incubated at 95° C and centrifuged. […]
# [4] = tested on: p16^INK4a; experiment: p16INK4a mRNA levels (qPCR); details: UVB-irradiated HDF, SA treatment
# Description: as §2, with “*p<0.05.” for “*p<0.05. (F) Immunofluorescence of γH2AX in non-irradiated and non-treated cells, irradiated and non-treated cells and irradiated cells treated with Shikimic acid (10, 25 and 50 mM).”
# RNA was extracted from cell pellets using the Total RNA Purification Kit (Norgen, Canada), according to the manufacturer’s protocol. Extracted RNA was quantified using a NanoDrop® ND-1000 UV-Vis Spectrophotometer (Thermo Fisher Scientific, USA) and 300 ng of RNA were retrotranscribed to cDNA using the PrimeScriptTM RT reagent kit (Takara Bio Inc., Japan). cDNA was diluted 1/10 in ultrapure water and qPCR mix was prepared by adding cDNA (12 ng), SYBR green supermix (Bio Rad, USA), forward and reverse primers (0.2μM). […] The results were analyzed with Bio-Rad CFX Manager software. […]
# [5] = tested on: SIRT1; experiment: SIRT1 mRNA and protein levels in HDF; details: Shikimic acid 5, 10, 25, 50 mM, 24h
# Description: RNA was extracted from cell pellets using the Total RNA Purification Kit (Norgen, Canada), according to the manufacturer’s protocol. Extracted RNA was quantified using a NanoDrop® ND-1000 UV-Vis Spectrophotometer (Thermo Fisher Scientific, USA) and 300 ng of RNA were retrotranscribed to cDNA using the PrimeScriptTM RT reagent kit (Takara Bio Inc., Japan). cDNA was diluted 1/10 in ultrapure water and qPCR mix was prepared by adding cDNA (12 ng), SYBR green supermix (Bio Rad, USA), forward and reverse primers (0.2μM). The primers and their respective sequences are listed in Supplementary Table 1. qPCR protocol included one step at 95° C for 30 s, 40 cycles at 95° C for 10s, and 60° C for 1min. The results were analyzed with Bio-Rad CFX Manager software. BACT was used as a housekeeping gene to normalize gene expression.
# as §1
# Student T-test, *p<0.05, **p<0.01, ***p<0.001.
# (1 picture or pasted object on this page, not shown here)
# [6] = tested on: LC3-II; experiment: LC3-II protein levels (Western blot); details: UVB-irradiated cells, SA -/+ EX-527 1 μM (reversion at SA 10mM)
# Description: as §3, §4
# [7] = tested on: H4K16ac (the target of SIRT1 and SIRT2); experiment: Sirtuin activity assay in HDF: H4K16ac levels (Western blot); details: UV conditions, -/+25mM SA -/+1μM EX-527
smiles,measurement,setting,value
O=C(O)C1=C[C@@H](O)[C@@H](O)[C@H](O)C1 [Shikimic acid],effect on H4K16ac levels,[1],induced a similar effect on both targets
same,accumulation of DNA damage (γH2AX),[2],did not alter the accumulation of DNA damage
same,BiP protein levels,[3],induced upregulation of chaperone BiP
same,p16INK4a mRNA levels,[4],downregulation of the cell cycle regulator p16
same,SIRT1 gene expression and protein levels,[5],did not observe any significant correlation with gene expression and protein levels
same,LC3-II protein levels,[6],SA-dependent decrease in the levels of LC3-II
same,H4K16ac/H4 levels under UV-induced senescence,[7],induced increased deacetylation of H3K9ac and H4K16ac
